In paper PMC4281356, “Uptake of the antisecretory factor peptide AF-16 in rat blood and cerebrospinal fluid and effects on elevated intracranial pressure” (Acta Neurochirurgica, 2014):
Where “and” joins values, the source holds several entries; their conditions need not be identical. Identical values can stand only once. Residues, ends and D or L forms follow the SMILES beside them.

How the values were obtained:
[1] = AF-16 concentration in plasma after intranasal or i.v. administration (Bachem AF-16 Enzyme Immunoassay); type: in vivo, rat; conditions: for Concentration of AF-16 in plasma: experimental rats (cryogenic brain injury); for Concentration of AF-16 in plasma / level at 0.5 h: sample 30 min after dosing, enzyme immunoassay, mean ± SEM; for level at 0.5 h: male, Sprague-Dawley, rat, plasma, control (uninjured) rats
Description: (§1) The test protocol was approved by the Regional Animal Experiments Ethical Committee and performed in accordance with guidelines for animal experiments (EC Directive 86/609/EEC). Male Sprague–Dawley rats, 180 ± 20 g body weight (Nova-SCB, Sollentuna, Sweden) were used. The rats were allowed a week for general adaptation in their cages before any form of experimental procedure was performed. All rats had free access to water and pelleted food during the whole experimental period. The temperature and air ventilation in the animal quarters were monitored according to standard procedures.
(§2) The operation procedure started with general anaesthesia via inhalation of Isoflurane (4 % induction, 1.5–2 % maintenance in air), after which the anaesthetised rat was positioned on the abdomen on a heating pad. The body temperature was monitored via a rectal thermo-coupled probe, and a heated blanket was placed underneath the rat in order to keep the temperature at 37 °C. The head was shaved and the skin washed with 70 % alcohol, followed by a subcutaneous injection of Marcaine. A 3– to 4-cm-long midline incision was made through the skin and fascia on the skull vault. The skull bone was freed from adherent connective tissue and a copper rod (144 g) with a tip diameter of 4 mm was immersed in liquid nitrogen and then applied to the right parietal bone for 90 s. […] The resulting lesion volume was calculated after termination of the experiments (see below). Uninjured rats were used as controls.
(§3) Rats were anaesthetised with Isoflurane 24 h after the cryogenic brain injury. The rats were given a single dose of 25 μl of AF-16 (2,000 μg/ml in phosphate buffered saline, PBS) or ^14C-AF-16 in each nostril and were then placed on their backs to make sure the AF-16 solution was absorbed appropriately. After 5–8 min they had recovered from anaesthesia, were fully awake and moved freely in the cage. Control, injured rats received the same volume of vehicle (PBS) only. ICP recordings for statistical calculations were collected for a 20-min-long period, starting after the animals were fully awake and the ICP values were stable and back to pre-anaesthesia levels.
(§4) The collection of blood and CSF was done in a separate set of experiments. ^14C-Labelled or unlabelled AF-16 was given by intranasal (see above) or i.v. administration via the penis vein (25 μl in a volume of 0.5 ml). For measurement of blood concentration of AF-16 the heart was punctured from the right thoracic cavity with an O.D. 1.22/60 mm injection needle. When 10–12 ml of blood had been collected, the thorax was opened and the rats were terminated by removing the heart. Immediately after termination, the rats were placed on the abdomen. For measurement of CSF levels of AF-16 the dura over cisterna magna was micro-surgically exposed by dissecting the neck muscles laterally, a procedure which uncovers the midline. The dura was subsequently punctured by a Neoflon i.v. cannula, outer diameter 0.6 mm, length 19 mm. After removing the needle from the cannula, 50–100 μl of CSF could be aspired without being contaminated with blood.
A Bachem AF-16 Enzyme Immunoassay kit (item S-1403) was used. Heparin-treated blood samples were mixed with an equal volume of Alsevers citrate solution (glucose, 0.1 M, sodium citrate 2-hydrate, 0.03 M, sodium chloride, 0.07 M). The blood samples were stored frozen for up to 1 month at −20 °C. The laboratory procedure followed Protocol III in the Bachem kit manual, but some critical points should be emphasised. The standard AF-16 was dissolved and diluted in normal blood plasma; the standards S1-S6 (0.2–200 ng/ml, corresponding to 0.114–114 nM) and normal plasma S0 were distributed into smaller aliquots (e.g. 200 μl) and frozen at −20 °C until use. The standard is not stable in buffered saline at these concentrations. […]

[2] = Side effects of AF-16 treatment in animals; type: in vivo; conditions: experimental conditions in animals
[3] = AF-16 concentration in CSF after intranasal or i.v. administration (estimated from radioactivity of 14C-AF-16); type: in vivo, rat; conditions: for Concentration of AF-16 in CSF: estimated from 14C radioactivity, mean ± SEM
Description: as §1, §2, §3, §4
A Bachem AF-16 Enzyme Immunoassay kit (item S-1403) was used. Heparin-treated blood samples were mixed with an equal volume of Alsevers citrate solution (glucose, 0.1 M, sodium citrate 2-hydrate, 0.03 M, sodium chloride, 0.07 M). The blood samples were stored frozen for up to 1 month at −20 °C. The laboratory procedure followed Protocol III in the Bachem kit manual, but some critical points should be emphasised. […]

[4] = Autoradiography of 14C-AF-16 distribution in the brain after intranasal administration; type: in vivo, rat; conditions: control uninjured rats (n = 10), one intranasal dose, 30 min, 10 μm cryosections, X-ray film
Description: The distribution of ^14C-AF-16 in the brain after intranasal administration was investigated in a separate set of experiments. Control, uninjured rats (n = 10) received one intranasal dose of ^14C-AF-16. Thirty minutes later the rats were terminated and the brains were dissected out as described above. Frontal slices were cut, about 3 mm thick, immersed in 10 % sucrose in PBS overnight and then frozen in liquid nitrogen. Cryosections, cut at 10 μm, were prepared, air dried and exposed to Biomax AR autoradiography film (Kodak).

Row | Compound | Concentration of AF-16 in plasma relative to CSF ([1]; control and injured rats, 30 min after intranasal or i.v. administration) | Concentration of AF-16 in plasma ([1]; i.v. via penis vein (25 μl in 0.5 ml), n = 7) | Concentration of AF-16 in plasma ([1]; intranasal (25 μl of 2,000 μg/ml in PBS in each nostril), n = 9) | level at 0.5 h ([1]; inhaled or intranasal, 100 ug per rat, intranasal (25 μl of 2,000 μg/ml in PBS in each nostril), n = 9) | level at 0.5 h ([1]; iv, 25 ul in a volume of 0.5 ml, i.v. via penis vein (25 μl in 0.5 ml), n = 7) | Concentration of AF-16 in plasma relative to CSF ([1]; normal rats, intranasal 0.3 μmol/kg in 25 μl, 15 and 30 min after deposition) | Change of plasma level between 15 and 30 min ([1]; normal rats, intranasal 0.3 μmol/kg, p < 0.03) | Side effects of treatment [2] | Concentration of AF-16 in CSF ([3]; control (uninjured) rats, i.v., CSF from cisterna magna 30 min after dosing, n = 6) | Concentration of AF-16 in CSF ([3]; control (uninjured) rats, intranasal, CSF 30 min after dosing, n = 9) | Concentration of AF-16 in CSF ([3]; experimental rats (cryogenic brain injury), i.v., CSF from cisterna magna 30 min after dosing, n = 7) | Concentration of AF-16 in CSF ([3]; experimental rats (cryogenic brain injury), intranasal, CSF 30 min after dosing, n = 9, p = 0.01 vs control) | Decrease of AF-16 in CSF between 15 and 30 min ([3]; normal rats, intranasal 0.3 μmol/kg) | Distribution in the brain by autoradiography [4]
1 | CC(C)C[C@H](NC(=O)CNC(=O)[C@@H](NC(=O)[C@H](CC(N)=O)NC(=O)[C@H](CC(N)=O)NC(=O)[C@H](CCC(=O)O)NC(=O)[C@@H]1CCCN1C(=O)[C@H](CC(N)=O)NC(=O)[C@H](CO)NC(=O)[C@H](CCCNC(=N)N)NC(=O)[C@@H](NC(=O)[C@H](CCCCN)NC(=O)[C@H](CO)NC(=O)[C@H](Cc1c[nH]cn1)NC(=O)[C@H](CS)NC(=O)[C@@H](N)C(C)C)[C@@H](C)O)C(C)C)C(=O)O [AF-16] (H-VCHSKTRSNPENNVGL-OH) | about ten-times higher in plasma than in CSF | 14.5 ± 0.9 ng/mL | 8.7 ± 0.5 ng/mL | 7.8 ± 0.7 ng/mL | 14.7 ± 0.6 ng/mL | about ten-times higher in plasma than in CSF | decreased significantly | No side effects | 1.1 ± 0 ng/mL | 0.6 ng/mL and 0.6 ± 0.1 ng/mL | 1.1 ± 0.1 ng/mL | 1.3 ng/mL and 1.3 ± 0.2 ng/mL | not statistically significant | –
2 | VCHSKTRSNPENNVGL [^14C-AF-16] | – | – | – | – | – | – | – | – | – | – | – | – | – | detected in the brain ventricles/choroid plexus
